Reference: US10653691B2, “Method of promoting remyelination” (Case Western Reserve University, priority 2013, dated 2020)

Legend:
ERK1/2 = assay: Western blot of ERK1/2 phosphorylation in OPCs; format: cell-based, mouse; details: OPCs treated for 1 h
Description: EpiSC-derived OPCs were seeded into poly-Lornithine/laminin coated six-well plates and allowed to attach for 2 h in DMEM/F12 without additional factors. Cells were treated with indicated inhibitors or DMSO for 1 h-SCH772984 (ChemieTek, […]), SB590885 (Tocris, 10 nM), LY294002 (Tocris, 10 μM), and PD0325901 (Stemgent, 1 μM). Cells were then stimulated with drug or FGF2 (R&DSystems; 20 ng ml^−1) for 1 h and then lysed in 200 μL RIPA buffer (0.15 M NaCl, 0.05M Tris, pH=8.0, 1 mM EDTA, 1% Triton X-100, 0.1% SDS, 10% glycerol, HALT protease and phosphatase inhibitor (Thermo Fisher) added just before use) and incubated on ice for 20 min. Lysates were centrifuged at 4° C. and supernatant collected. Protein concentrations were determined by Pierce BCA protein assay kit (Thermo Fisher). Equal amounts of protein were resolved in a reduced manner on NuPAGE 4-12% Bis-Tris gels (Life Technologies) and transferred onto PVDF membranes (Life Technologies). Blots were blocked in either 5% BSA (phosphoprotein) or 5% milk (non phosphoprotein). Primary antibodies were all from the same vendor (Cell Signaling) and included phospho-Erk1/2 (4370S, clone D13.14.4E; 1:2,000), ERK1/2 (9107S, clone 3A7; 1:2,000), phospho-glucocorticoid receptor (4161S; 1:1,000), and glucocorticoid receptor (12041, clone D6H2L; 1:1,000) followed by incubation with HRP-conjugated secondary antibodies and chemiluminescent enhancement by West Pico substrate (Thermo Fisher).

[1] = test system: 414 different kinase isoforms; assay: Kinase profiling (LanthaScreen, Z'-LYTE, Adapta); format: biochemical; details: 414 kinase isoforms
Description: LanthaScreen, Z9-LYTE, and Adapta kinase assays were performed by Select Screen (Life Technologies). LanthaScreen Eu kinase assays were performed in Greiner low-volume 384-well plates. Assay buffer consisted of 50 mM HEPES pH 7.5, 0.01% BRIJ-35, 10 mM MgCl2, 1 mM EGTA. Each well consisted of this mixture: 4.0 μl of 4 μM test drug in assay buffer, 8 μl of 2× kinase/Eu antibody mixture, and 4 μl of 4×Alexa Fluor 647 tracer. Plates were incubated for 60 min at room temperature (˜22° C.), then Alexa Fluor 647 emission (665 nm) and Europium emission (615 nm) read on a fluorescent plate reader. Data were analysed by generating the emission ratio (665 nm/615 nm) for each test point and normalizing 0% to control wells with no known inhibitor and 100% to control wells with highest concentration of known inhibitor.
Z′-LYTE assays were performed in Corning, low volume 384-well plates. Assay buffer consisted of 50 mM HEPES pH 7.5, 0.01% BRIJ-35, 10 mM MgCl2, 1 mM EGTA. […] Coumarin emission (445 nm) and fluorescein emission (520 nm) were read on a fluorescent plate reader. Data were analysed by normalizing out background fluorescence then generating the emission ratio (445 nm/520 nm) for each test point. […]
Adapta assays were performed in Corning, low volume 384-well plates. […] Alexa Fluor 647 emission (665 nm) and europium emission (615 nm) were read on a fluorescent plate reader. […]

LPC lesion mouse model = assay: LPC-induced focal demyelination of the spinal cord and drug treatment; format: in vivo; details: for MBP staining in the lesions: 8 and 12 d.p.l.; for number of newly generated CC1+ oligodendrocytes in the lesion core: 8 d.p.l., miconazole 10 or 40 mg per kg, clobetasol 2 mg per kg, vs vehicle; for extent of remyelination (electron micrographs, toluidine blue): lesions of treated mice
Description: Focal demyelination in the spinal cord was induced by the injection of 1% LPC solution. Ten- to 12-week-old C57BL/6 female mice were anaesthetized using isoflurane and a T10 laminectomy was performed. One microlitre of 1% LPC was infused into the dorsal column at a rate of […]. The animals were euthanized either at day 8 or day 12 after the laminectomy (n=6-9 per group). Animals that were euthanized at day 8 received vehicle or drug daily by intraperitoneal injection between days 3 and 7. Animals used in the day 12 experiments received vehicle or drug daily by intraperitoneal injection between days 4 and 11. Drugs were dissolved in DMSO and then diluted with sterile saline for injection. Mice were deeply anaesthetized using ketamine/xylazine rodent cocktail and then euthanized by transcardial perfusion with 4% PFA for histological analysis or 4% PFA, 2% gluteraldehyde, and 0.1M sodium cacodylate for electron microscopy. PFA fixed tissue was equilibrated in 30% sucrose, embedded in OCT, and cryosectioned at 20 μm thickness and processed for CC1 and MBP immunohistochemistry. ImageJ was used to measure area of the lesion and CC1^+ cells within the lesion were scored manually. For CC1 scoring, sections were taken from the centre of each lesion to control for lesion variability.
Samples were processed as previously described.

[2] = test system: muscarinic receptor subtypes (M1-M5); assay: Muscarinic receptor antagonism, GeneBLAzer or Tango cellular reporter assays; format: cell-based; details: 1 μM
Description: GeneBLAzer or Tango assays were performed to determine level of acetylcholine muscarinic receptor M1, M3, M5 (GeneBLAzer), M2 and […] (Tango) antagonism.

[3] = test system: hESC- and hiPSC-derived human OPCs; assay: Screening of human OPCs (MBP staining, HCA); format: cell-based; details: 21 days; miconazole 1 μM, clobetasol 5 μM; vs DMSO
Excerpt: Human OPCs were generated from skin fibroblast-derived human iPSC line (CWRU43, Tesar laboratory) and hESC lines H7 (NIH Human Embryonic StemCell RegistryWA07; NIH approval number NIHhESC-10-0061) and H9 (NIH Human Embryonic Stem Cell Registry WA09; NIH approval number NIHhESC-10-0062) as previously described. iPSC- and hESC-derived OPCs were characterized by Sox10 (R&D Systems, AF2864; 1:100) staining, and then seeded in 96-well plates at 40,000 cells per well for drug testing. […] Plates were fixed and stained with MBP (Abcam, ab7349; 1:100) then imaged on the Operetta system. We analysed results with slight modification to HCA Acapella scripts used for mouse oligodendrocytes.

Row | Structure (SMILES) | induction of ERK1/2 phosphorylation in OPCs (ERK1/2) | inhibition of kinase activity [1] | MBP staining in the lesions (LPC lesion mouse model) | number of newly generated CC1+ oligodendrocytes in the lesion core (LPC lesion mouse model) | myelin thickness relative to axon diameter (g ratio) (LPC lesion mouse model; 12 d.p.l., compared with intact myelin) | extent of remyelination (electron micrographs, toluidine blue) (LPC lesion mouse model) | inhibition of muscarinic receptor subtypes M1-M5 [2] | human OPC differentiation [3]
1 | C[C@H]1C[C@H]2[C@@H]3CCC4=CC(=O)C=C[C@]4(C)[C@@]3(F)[C@@H](O)C[C@]2(C)[C@@]1(O)C(=O)CCl [clobetasol] | did not induce ERK1/2 phosphorylation | Neither clobetasol nor miconazole inhibited any of the kinases tested | extensive MBP staining | significant increase in the number of newly generated CC1^+ oligodendrocytes | thinner than intact myelin | striking increase in the extent of remyelination | Neither miconazole nor clobetasol inhibited any of the five muscarinic receptor subtypes | enhanced human OPC differentiation
2 | Clc1ccc(COC(Cn2ccnc2)c2ccc(Cl)cc2Cl)c(Cl)c1 (stereo not drawn) [miconazole] | strong and sustained phosphorylation | Neither clobetasol nor miconazole inhibited any of the kinases tested | extensive MBP staining | significant increase in the number of newly generated CC1^+ oligodendrocytes | – | striking increase in the extent of remyelination | Neither miconazole nor clobetasol inhibited any of the five muscarinic receptor subtypes | enhanced human OPC differentiation, with miconazole exhibiting the most reproducible and potent effects
